Reference: patent US9464105B2, “Hydroxylated KRN7000 analogue and use thereof” (RIKEN, priority 2012, dated 2016)

Test system: IFN-γ and IL-4 in plasma
Test: Cytokine content in mouse plasma after intravenous administration of glycolipid (Cytometric Bead Array)
Format: in vivo, C57BL/6 mice
Conditions: tail vein, 100 μg/kg body weight, plasma up to 60 hr (FIG. 1, FIG. 2)
Protocol: Solutions of each of KRN7000, RCAI-147, RCAI-151, and RCAI-160 in dimethyl sulfoxide (DMSO) at a concentration of 1 mg/mL were prepared. The above-mentioned DMSO solutions were diluted 5-fold with 0.5% Tween 20 (Bio-Rad)-containing phosphate buffer (Invitrogen) and further diluted 20-fold with phosphate buffer, such that the dose became 100 μg/kg body weight when 200 μL was administered per mouse from the tail vein.
To three C57BL/6 mice per group was injected each prepared solution (200 μL) of RCAI-147, RCAI-151 and RCAI-160 into the tail vein (administration of about 2 μg per mouse). As a control substance, KRN7000 was used, and a solution (200 μL) of KRN7000 prepared in the same manner such that the dose became 100 μg/kg body weight was injected into the tail vein. The blood (80 μL) immediately before administration, and after lapse of 1, 3, 6, 12, 24, 32, 48 and 60 hr was collected from orbital plexus venosus, and plasma was prepared.
The content of each cytokine in plasma immediately before and after administration of each glycolipid was measured by Cytometric Bead Array (CBA) system (BD Biosciences) which is one of the ELISA methods.
The measurement results (mean) and standard deviation thereof (STDEV) of the content of IFN-γ in plasma immediately before administration, and after lapse of 3, 6, 12, 24, 32, 48 and 60 hr are shown in FIG. 1. The measurement results (mean) and standard deviation thereof (STDEV) of the content of IL-4 in plasma immediately before administration, and after lapse of 1, 3, 6, 12 and 24 hr from the administration are shown in FIG. 2.

In the case of `CCCCCCCCCCCCCCCCCCCCCCC[C@@H](O)[C@@H](O)C(=O)N[C@@H](COC1OC(CO)C(O)C(O)C1O)[C@H](O)[C@H](O)[C@@H](O)[C@@H](O)CCCCCCCCCCCC` (stereo partly drawn) [RCAI-147, (2S,3S,4S,5S,6S)-2-[(2′R,3′R)-2′,3′-(dihydroxy)hexacosanoylamino]-3,4,5,6-(tetrahydroxy)octadecyl α-D-galactopyranoside], the “cytokine production induction activity (IFN-γ / IL-4 bias) as compared to KRN7000” value is reported as “cytokine production induction activity biased to the IL-4 as compared to KRN7000”.
`CCCCCCCCCCCCCCCCCCCCCCC[C@@H](O)[C@@H](O)C(=O)N[C@@H](COC1OC(CO)C(O)C(O)C1O)[C@H](O)[C@H](O)CCCCCCCCCCCCCC` (stereo partly drawn) [RCAI-151, (2S,3S,4R)-3,4-dihydroxy-2-[(2′R,3′R)-2′,3′-dihydroxyhexacosanoylamino]octadecyl α-D-galactopyranoside] was tested, and the “cytokine production induction activity (IFN-γ / IL-4 bias) as compared to KRN7000” value was “cytokine production induction activity biased to the IL-4 as compared to KRN7000”.
In the case of `CCCCCCCCCCCCCCCCCCCCCC[C@@H](O)[C@@H](O)[C@@H](O)C(=O)N[C@@H](CO[C@H]1O[C@H](CO)[C@H](O)[C@H](O)[C@H]1O)[C@H](O)[C@H](O)CCCCCCCCCCCCCC` [RCAI-160, (2S,3S,4R)-2-[(2′R,3′R,4′R)-2′,3′,4′-trihydroxyhexacosanoyl]amino-3,4-di-hydroxyoctadecyl α-D-galactopyranoside], the “cytokine production induction activity (IFN-γ / IL-4 bias) as compared to KRN7000” value is reported as “cytokine production induction activity biased to the IL-4 as compared to KRN7000”.
